Assay results taken from patent US20030180341A1, “Biocompatible hydrophilic films from polymeric mini-emulsions for application to skin” (priority 2002, published 2003).

Tests used:
[1] = Anti-microbial effect of mini-emulsion/film compositions with sodium hypochlorite; conditions: provided in the mini-emulsion/film compositions, preferably between about 0.1 and about 0.5% by weight of solids
[2] = Antifungal properties of films containing caprylic fatty acid; conditions: dried film
[3] = Antibacterial properties of films and mini-emulsions containing caprylic fatty acid

SMILES | anti-microbial effect [1] | antifungal properties [2] | antibacterial effect ([3]; dried film) | antibacterial properties ([3]; liquid mini-emulsion)
OCl [sodium hypochlorite] | effective as a broad spectrum anti-microbial |  |  | 
CCCCCCCC(=O)O [caprylic fatty acid] |  | broad spectrum antifungal properties | mild antibacterial effect | broad spectrum antibacterial properties
